A word on the IC50: it is the midpoint of a concentration-inhibition curve.

The assay deals with T1, human neutrophil elastase (Homo sapiens, UniProt P08246).
T1 sequence (P08246 30-267): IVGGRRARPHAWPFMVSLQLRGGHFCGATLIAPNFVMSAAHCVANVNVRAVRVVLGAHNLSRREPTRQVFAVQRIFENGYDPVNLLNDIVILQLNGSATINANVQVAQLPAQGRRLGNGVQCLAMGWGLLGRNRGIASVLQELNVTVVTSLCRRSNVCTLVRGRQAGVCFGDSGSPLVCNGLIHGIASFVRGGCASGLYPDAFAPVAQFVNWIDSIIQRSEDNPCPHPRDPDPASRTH
Briefly: In vitro assay of human neutrophil elastase (HNE). Type of assay: biochemical. To be noted: 118 nM purified human neutrophil elastase, pH 8.6, 15 min incubation at 30° C., MeO-succinyl-alanyl-alanyl-prolyl-valyl-p-nitroanilide substrate; read-out: HNE IC50. The method, boiled down:
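Residual activity was taken as the 10 min rate of absorbance rise at 405 nm after adding 0.6 mM MeO-succinyl-AAPV-p-nitroanilide. Curve fitting of activity against concentration gave IC50.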
Turning to `CCC[C@H]1C(=O)N(S(C)(=O)=O)[C@H]2CCN(S(=O)(=O)c3ccc(Cl)cc3)[C@H]12` (relative stereo) [Example 215, rel-(3R,3aR,6aS)-4-(4-Chloro-benzenesulfonyl)-1-methanesulfonyl-3-propyl-hexahydro-pyrrolo[3,2-b]pyrrol-2-one], the IC50 was found to be 0.028 µM.
Under `CCC[C@H]1C(=O)N(S(C)(=O)=O)[C@H]2CCN(S(=O)(=O)c3ccc(C(F)(F)F)cc3)[C@H]12` (relative stereo) [Example 216, rel-(3R,3aR,6aS)-1-Methanesulfonyl-3-propyl-4-(4-trifluoromethyl-benzenesulfonyl)-hexahydro-pyrrolo[3,2-b]pyrrol-2-one] stands 0.087 µM; under `CCC[C@H]1C(=O)N(S(C)(=O)=O)[C@H]2CCN(S(=O)(=O)c3ccc(S(C)(=O)=O)cc3)[C@H]12` (relative stereo) [Example 217, rel-(3R,3aR,6aS)-1-Methanesulfonyl-4-(4-methanesulfonyl-benzenesulfonyl)-3-propyl-hexahydro-pyrrolo[3,2-b]pyrrol-2-one], 0.04 µM; under `CCC[C@H]1C(=O)N(S(C)(=O)=O)[C@H]2CCN(S(=O)(=O)c3ccc(C#N)cc3)[C@H]12` (relative stereo) [Example 218, rel-4-(4-Methanesulfonyl-5-oxo-6R-propyl-hexahydro-(3aS,6aR)-pyrrolo[3,2-b]pyrrole-1-sulfonyl)-benzonitrile], 0.026 µM.
`CCC[C@H]1C(=O)N(S(C)(=O)=O)[C@H]2CCN(S(=O)(=O)c3ccccc3)[C@H]12` (relative stereo) [Example 219, rel-(3R,3aR,6aS)-4-Benzenesulfonyl-1-methanesulfonyl-3-propyl-hexahydro-pyrrolo[3,2-]pyrrol-2-one]: the IC50 stood at 0.01 µM.
Turning to `CCC[C@H]1C(=O)N(S(C)(=O)=O)[C@H]2CCN(S(=O)(=O)c3ccc(OC)cc3)[C@H]12` (relative stereo) [Example 220, rel-(3R,3aR,6aS)-1-Methanesulfonyl-4-(4-methoxy-benzenesulfonyl)-3-propyl hexahydro-pyrrolo[3,2-b]pyrrol-2-one], the IC50 was found to be 0.012 µM.
The figure for `CCC[C@H]1C(=O)N(S(C)(=O)=O)[C@H]2CCN(S(=O)(=O)c3ccc(N(C)C)cc3)[C@H]12` (relative stereo) [Example 221, rel-(3R, 3aR,6aS)-4-[4-Dimethylamino-benzenesufonyl)-1-methanesulfonyl-3-propyl-hexahydro-pyrrolo[3,2-b]pyrrol-2-one] is 0.027 µM; for `CCC[C@H]1C(=O)N(S(C)(=O)=O)[C@H]2CCN(S(=O)(=O)c3cccc([N+](=O)[O-])c3)[C@H]12` (relative stereo) [Example 222, rel-(3R,3aR,6aS)-1-Methanesulfonyl-4-(3-nitro-benzenesulfonyl)-3-propyl-hexahydro-pyrrolo[3,2-b]pyrrol-2-one] it is 0.107 µM.
As for `CCC[C@H]1C(=O)N(S(C)(=O)=O)[C@H]2CCN(S(=O)(=O)c3cccc(C(F)(F)F)c3)[C@H]12` (relative stereo) [Example 223, rel-(3R,3aR,6aS)-1-Methanesulfonyl-3-propyl-4-(3-trifluoromethyl-benzenesulfonyl)-hexahydro-pyrrolo[3,2-b]pyrrol-2-one], the IC50 was found to be 0.062 µM.
Take `CCC[C@H]1C(=O)N(S(C)(=O)=O)[C@H]2CCN(S(=O)(=O)c3cc(C(F)(F)F)cc(C(F)(F)F)c3)[C@H]12` (relative stereo) [Example 224, rel-(3R,3aR,6aS)-4-(3,5-Bis-trifluoromethyl-benzenesulfonyl)-1-methanesulfonyl-3-propyl-hexahydro-pyrrolo[3,2-b]pyrrol-2-one]: the IC50 is 0.41 µM.
Take `CCC[C@H]1C(=O)N(S(C)(=O)=O)[C@H]2CCN(S(=O)(=O)c3ccccc3C(F)(F)F)[C@H]12` (relative stereo) [Example 225, rel-(3R,3aR,6aS)-1-Methanesulfonyl-3-propyl-4-(2-trifluoromethyl-benzenesulfonyl)-hexahydro-pyrrolo[3,2-b]pyrrol-2-one]: the IC50 is 0.12 µM.
`CCC[C@H]1C(=O)N(S(C)(=O)=O)[C@H]2CCN(S(=O)(=O)c3ccccc3[N+](=O)[O-])[C@H]12` (relative stereo) [Example 226, rel-(3R,3aR,6aS)-1-Methanesulfonyl-4-(2-nitro-benzenesulfonyl)-3-propyl-hexahydro-pyrrolo[3,2-b]pyrrol-2-one]: the IC50 stood at 0.087 µM.
For `CC(C)[C@H]1C(=O)N(S(C)(=O)=O)[C@H]2CCN(S(=O)(=O)c3ccc(S(C)(=O)=O)cc3)[C@H]12` (relative stereo) [Example 227, rel-(3R,3aR,6aS)-3-Isopropyl-1-methanesulfonyl-4-(4-methanesulfonyl-benzenesulfonyl)-hexahydro-pyrrolo[3,2-b]pyrrol-2-one], the IC50 came to 0.118 µM.
Turning to `CC(C)[C@H]1C(=O)N(S(C)(=O)=O)[C@H]2CCN(S(=O)(=O)c3ccc(C(F)(F)F)cc3)[C@H]12` (relative stereo) [Example 228, rel-(3R,3aR,6aS)-3-Isopropyl-1-methanesulfony]4-(4-trifluoromethyl-benzenesulfonyl)-hexahydro-pyrrolo[3,2-b]pyrrol-2-one], the IC50 amounted to 0.068 µM.
For `CC(C)[C@H]1C(=O)N(S(C)(=O)=O)[C@H]2CCN(S(=O)(=O)c3ccc([N+](=O)[O-])cc3)[C@H]12` (relative stereo) [Example 229, rel-(3R,3aR,6aS)-3-Isopropyl-1-methanesulfonyl-4-(4-nitro-benzenesulfonyl)-hexahydro-pyrrolo[3,2-b]pyrrol-2-one], the IC50 amounted to 0.167 µM.
As for `CCCCOc1ccc(S(=O)(=O)N2CC[C@H]3[C@H]2[C@@H](C(C)C)C(=O)N3S(C)(=O)=O)cc1` (relative stereo) [Example 230, rel-(3R,3aR,6aS)-4-(4-Butoxy-benzenesulfonyl)-3-isopropyl-1-methanesulfonyl-hexahydro-pyrrolo[3,2-b]pyrrol-2-one], the IC50 is 0.092 µM.
For `CCC[C@H]1C(=O)N(S(C)(=O)=O)[C@H]2CCN(C(=O)c3ccco3)[C@H]12` (relative stereo) [Example 231, rel-(3R,3aR,6aS)-4-(Furan-2-carbonyl)-1-methanesulfonyl-3-propyl-hexahydro-pyrrolo[3,2-b]pyrrol-2-one], the IC50 came to 0.035 µM.
Consider `CCC[C@H]1C(=O)N(S(C)(=O)=O)[C@H]2CCN(C(=O)c3cccs3)[C@H]12` (relative stereo) [Example 232, rel-(3R,3aR,6aS)-1-Methanesulfonyl-3-propyl-4-(thiophene-2-carbonyl)-hexahydro-pyrrolo[3,2-b]pyrrol-2-one], for which the IC50 amounted to 0.078 µM.
For the compound `CCC[C@H]1C(=O)N(S(C)(=O)=O)[C@H]2CCN(C(=O)c3ccccc3)[C@H]12` (relative stereo) [Example 233, rel-(3R,3aR,6aS)-4-Benzoyl-1-methanesulfonyl-3-propyl-hexahydro-pyrrolo[3,2-b]pyrrol-2-one], the IC50 was found to be 0.062 µM.
Regarding `CCC[C@H]1C(=O)N(S(C)(=O)=O)[C@H]2CCN(S(=O)(=O)c3ccc(N)cc3)[C@H]12` (relative stereo) [Example 234, rel-(3R,3aR,6aS)-4-(4-Amino-benzenesulfonyl)-1-methanesulfonyl-3-propyl-hexahydro-pyrrolo[3,2-b]pyrrol-2-one], the IC50 is 0.011 µM.

For the origin of these results see patent US6215002A, “Pyrrolopyrrolone derivatives as inhibitors of neutrophil elastase” (priority 1996, dated 2001).
